# Read-outs that look alike come from different tables or passages of the source.
# What was measured:
# human sEH = molecular target: T1, human sEH (Homo sapiens, UniProt P34913); assay: Inhibition of recombinant human sEH, IC50 assay with 4-nitrophenyl-trans-2,3-epoxy-3-phenylpropyl carbonate as substrate; format: biochemical; details: for IC90: 0.24 μM enzyme
# T1 construct: made in house; host or cells: baculovirus expression system
# T1 sequence (P34913 1-555): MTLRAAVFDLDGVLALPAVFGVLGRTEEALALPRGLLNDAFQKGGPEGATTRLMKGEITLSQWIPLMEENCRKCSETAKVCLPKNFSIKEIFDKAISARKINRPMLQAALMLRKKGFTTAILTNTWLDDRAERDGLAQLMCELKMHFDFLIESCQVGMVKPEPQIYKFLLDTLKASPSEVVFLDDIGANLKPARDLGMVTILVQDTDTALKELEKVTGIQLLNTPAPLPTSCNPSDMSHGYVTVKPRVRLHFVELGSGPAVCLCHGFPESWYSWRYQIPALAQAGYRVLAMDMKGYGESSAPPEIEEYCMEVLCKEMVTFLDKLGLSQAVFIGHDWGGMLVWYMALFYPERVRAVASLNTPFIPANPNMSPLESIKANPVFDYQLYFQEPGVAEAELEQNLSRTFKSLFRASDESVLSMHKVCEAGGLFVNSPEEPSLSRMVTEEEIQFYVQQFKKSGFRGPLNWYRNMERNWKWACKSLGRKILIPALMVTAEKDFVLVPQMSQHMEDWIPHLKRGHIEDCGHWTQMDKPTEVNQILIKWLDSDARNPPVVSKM
# Method: (§1) Assays were performed in triplicate. […] The curve was generated from at least three separate runs, each in triplicate, to obtain the standard deviation (SD) given in Table 1 thru Table 4.
# mouse sEH = molecular target: T2, mouse sEH (Mus musculus, UniProt P34914); assay: Inhibition of recombinant mouse sEH, IC50 assay with 4-nitrophenyl-trans-2,3-epoxy-3-phenylpropyl carbonate as substrate; format: biochemical
# T2 construct: made in house; host or cells: baculovirus expression system
# T2 sequence (P34914 1-554): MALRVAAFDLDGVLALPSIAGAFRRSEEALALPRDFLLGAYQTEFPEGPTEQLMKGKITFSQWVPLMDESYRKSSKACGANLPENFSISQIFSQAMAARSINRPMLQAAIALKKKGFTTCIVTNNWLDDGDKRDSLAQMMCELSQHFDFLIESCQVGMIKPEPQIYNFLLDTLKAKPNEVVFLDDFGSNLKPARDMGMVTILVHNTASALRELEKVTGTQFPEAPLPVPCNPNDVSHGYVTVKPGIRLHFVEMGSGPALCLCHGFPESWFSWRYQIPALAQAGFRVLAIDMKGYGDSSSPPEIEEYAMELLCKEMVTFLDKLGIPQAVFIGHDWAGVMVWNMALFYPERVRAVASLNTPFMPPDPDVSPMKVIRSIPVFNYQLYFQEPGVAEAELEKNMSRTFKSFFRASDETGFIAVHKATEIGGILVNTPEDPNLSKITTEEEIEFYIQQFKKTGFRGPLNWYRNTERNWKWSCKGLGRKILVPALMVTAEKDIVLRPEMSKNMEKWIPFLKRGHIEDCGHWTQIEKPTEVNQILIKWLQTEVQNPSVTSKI
# Method: as §1
# [1] = Table 1, […] enzyme, 5 min preincubation, pH 7.4, 30° C., [S] = 40 μM, means ± SD of three experiments, read-out: IC50 (μM) Human sEH
# [2] = Table 1, 0.12 μM enzyme, 5 min preincubation, pH 7.4, 30° C., [S] = 40 μM, means ± SD of three experiments, read-out: IC50 (μM) Mouse sEH
# [3] = Table 5, 5 min preincubation, pH 7.4, 30° C., means ± SD
# [4] = Table 5, […] enzyme, 5 min preincubation, pH 7.4, 30° C., means ± SD, read-out: Human sEH IC50
# [5] = Table 5, 0.12 μM enzyme, 5 min preincubation, pH 7.4, 30° C., means ± SD
# [6] = Table 5, […] enzyme, 5 min preincubation, pH 7.4, 30° C., means ± SD, read-out: Mouse sEH IC50
# [7] = Table 9, established protocols, read-out: IC50 (μM) Human sEH
# [8] = Table 9, established protocols, read-out: IC50 (μM) Mouse sEH
# [9] = Tables 17a and b, read-out: IC50 (μM) Human sEH
# [10] = Tables 17a and b, read-out: IC50 (μM) Mouse sEH
SMILES,IC90 (human sEH; [3]),IC50 (human sEH; [4]),IC90 (mouse sEH; [5]),IC50 (mouse sEH; [6]),also measured
"O=C(NCCCCCCCCCCCC(=O)OCc1ccccc1)NC12CC3CC(CC(C3)C1)C2 [Compound 804, 1-(1-Adamantyl)-3-(11-benzyloxycarbonylundecyl)urea]",–,–,–,–,"IC50 (human sEH; Table 4, […] enzyme, 5 min preincubation, pH 7.4, 30° C., means ± SD, read-out: IC50 (μM) Human sEH): 0.13 ± 0.01 µM; IC50 (mouse sEH; Table 4, 0.12 μM enzyme, 5 min preincubation, pH 7.4, 30° C., means ± SD, read-out: IC50 (μM) Mouse sEH): 0.07 ± 0.01 µM"
CCCCCOC(=O)CCCCC(=O)NC12CC3CC(CC(C3)C1)C2 [Compound 834],–,–,–,–,"IC50 (human sEH; Table 8, established protocols, read-out: IC50 (μM) Human sEH): 2.4 ± 0.2 µM; IC50 (mouse sEH; Table 8, established protocols, read-out: IC50 (μM) Mouse sEH): 0.34 ± 0.01 µM"
COC(=O)CCCCNC(=O)NC1CCCCC1 [Compound 854],–,–,–,–,IC50 (human sEH; [1]): 5 ± 0.6 µM; IC50 (mouse sEH; [2]): 0.13 ± 0.03 µM
CCOC(=O)COC(=O)CCCNC(=O)NC12CC3CC(CC(C3)C1)C2 [Compound 857],9000 ± 2000 nM,0.39 ± 0.01 µM,110 ± 10 nM,0.05 ± 0.01 µM,–
CCOC(=O)CCCOC(=O)CCCNC(=O)NC12CC3CC(CC(C3)C1)C2 [Compound 858],5000 ± 100 nM,0.12 ± 0.01 µM,160 ± 10 nM,0.05 ± 0.01 µM,–
CCCCCOC(=O)c1cccc(NC(=O)NC23CC4CC(CC(C4)C2)C3)c1 [Compound 859],–,–,–,–,IC50 (human sEH; [7]): 0.1 ± 0.01 µM; IC50 (mouse sEH; [8]): 0.05 ± 0.01 µM
CCCCCOC(=O)c1ccc(NC(=O)NC23CC4CC(CC(C4)C2)C3)cc1 [Compound 860],–,–,–,–,IC50 (human sEH; [7]): 0.1 ± 0.01 µM; IC50 (mouse sEH; [8]): 0.05 ± 0.01 µM
CCCCCOC(=O)C1CCCC(NC(=O)NC23CC4CC(CC(C4)C2)C3)C1 (centres unmarked) [Compound 861],–,–,–,–,IC50 (human sEH; read-out: IC50 (μM) Human sEH): 0.1 ± 0.01 µM; IC50 (mouse sEH; [8]): 0.05 ± 0.01 µM
CCCCCOC(=O)C1CCC(NC(=O)NC23CC4CC(CC(C4)C2)C3)CC1 (centres unmarked) [Compound 863],–,–,–,–,IC50 (human sEH; [7]): 0.12 ± 0.01 µM; IC50 (mouse sEH; [8]): 0.05 ± 0.01 µM
CCOC(=O)CCOC(=O)CCCNC(=O)NC12CC3CC(CC(C3)C1)C2 [Compound 876],9000 ± 2000 nM,0.54 ± 0.05 µM,630 ± 20 nM,0.05 ± 0.01 µM,–
CCOC(=O)CCCCOC(=O)CCCNC(=O)NC12CC3CC(CC(C3)C1)C2 [Compound 877],1500 ± 100 nM,0.13 ± 0.01 µM,100 ± 10 nM,0.05 ± 0.01 µM,–
O=C(O)CCCCNC(=O)NC1CCCCC1 [Compound 884],–,–,–,–,IC50 (human sEH; [1]): 2.4 ± 0.1 µM; IC50 (mouse sEH; [2]): 0.25 ± 0.02 µM
C#CCCCCCCNC(=O)NC12CC3CC(CC(C3)C1)C2 [Compound 900],–,–,–,–,IC50 (human sEH; [9]): 0.1 ± 0.01 µM; IC50 (mouse sEH; [10]): 0.05 ± 0.01 µM
CS(=O)(=O)NCCCCCCCCCCCCNC(=O)NC12CC3CC(CC(C3)C1)C2 [Compound 901],–,–,–,–,IC50 (human sEH; [9]): 0.1 ± 0.01 µM; IC50 (mouse sEH; [10]): 0.07 ± 0.01 µM
O=C(NCCCCCCCCCCCCN[S+]([O-])NC12CC3CC(CC(C3)C1)C2)NC12CC3CC(CC(C3)C1)C2 (centres unmarked) [Compound 902],–,–,–,–,IC50 (human sEH; [9]): 0.44 ± 0.01 µM; IC50 (mouse sEH; [10]): 0.45 ± 0.01 µM
O=C(NC12CC3CC(CC(C3)C1)C2)C(F)(F)C(F)(F)C(F)(F)C(F)(F)C(F)(F)C(F)(F)C(F)(F)C(F)(F)C(F)(F)C(F)(F)C(F)(F)F [Compound 903],–,–,–,–,IC50 (human sEH; [9]): 0.01 ± 0.01 µM; IC50 (mouse sEH; [10]): 0.1 ± 0.01 µM
CCCCC(CC)OC(=O)C1CCCC(NC(=O)NC23CC4CC(CC(C4)C2)C3)C1 (centres unmarked) [Compound 904],–,–,–,–,IC50 (human sEH; read-out: IC50 (μM) Human sEH): 0.1 ± 0.01 µM; IC50 (mouse sEH; [8]): 0.05 ± 0.01 µM

# Second part, led by results:
IC90 (human sEH; [3]),IC50 (human sEH; [4]),IC90 (mouse sEH; [5]),IC50 (mouse sEH; [6]),SMILES,also measured
810 ± 10 nM,0.12 ± 0.01 µM,130 ± 10 nM,0.05 ± 0.01 µM,CCOC(=O)CCCCCCOC(=O)CCCNC(=O)NC12CC3CC(CC(C3)C1)C2 [Compound 878],–
720 ± 10 nM,0.11 ± 0.01 µM,160 ± 20 nM,0.05 ± 0.01 µM,CCOC(=O)CCCCCCCOC(=O)CCCNC(=O)NC12CC3CC(CC(C3)C1)C2 [Compound 879],–
680 ± 10 nM,0.1 ± 0.01 µM,260 ± 30 nM,0.05 ± 0.01 µM,CCOC(=O)CCCCCCCCCOC(=O)CCCNC(=O)NC12CC3CC(CC(C3)C1)C2 [Compound 880],–
1200 ± 100 nM,0.1 ± 0.01 µM,350 ± 50 nM,0.05 ± 0.01 µM,CCOC(=O)CCCCCCCCCCOC(=O)CCCNC(=O)NC12CC3CC(CC(C3)C1)C2 [Compound 881],–
1800 ± 200 nM,0.1 ± 0.01 µM,630 ± 40 nM,0.05 ± 0.01 µM,CCOC(=O)CCCCCCCCCCCOC(=O)CCCNC(=O)NC12CC3CC(CC(C3)C1)C2 [Compound 882],–
